AC50, IC50 and EC50 data for nine molecules are collected here from ChEMBL document CHEMBL1201862, “PubChem BioAssay data set” (2004).

Test [1] is described as follows: liver cell line viability loss – HepG2, luminescence plate reader, powder samples, set 2, cytotoxicity control, dose response (AID 651860). Type of test: functional, cell-based.
Test [2] can be described thus: activation of miR-122 Renilla sensor silencing – cell-based, Huh7 psiCHECK-miR122, Renilla luciferase, cherry-picked, dose response (AID 651956).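 Note: huh7 hepatoma cells stably carrying a psiCHECK-2 miR-122 sensor plasmid; renilla luciferase signal reporting endogenous miR-122 activity after 48 h compound exposure.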 The test is classed as functional.
Test [3] can be described thus: general mammalian cell viability loss – inhibitor set, cherry-pick, set 2, cytotoxicity control for miR-122 modulator project, dose response (AID 720697). The test is classed as functional, cell-based.
Test [4] can be described thus: general mammalian cell viability loss – activator set, cherry-pick, cytotoxicity control for miR-122 modulator project, dose response (AID 720690).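 Note: HEK293T human cells scored for general mammalian cytotoxicity.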 The test is classed as functional, cell-based.
For test [5], the target named is COUP transcription factor 2 (Homo sapiens, UniProt P24468). The test can be described thus: Luminescence-based cell-based high throughput dose response assay to identify inhibitors of COUP-TFII (NR2F2). The test is classed as functional.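 Note: HEK293 cells transiently cotransfected with COUP-TFII expression vector and reporter; luciferase reporter luminescence driven by COUP-TFII from the pX2-168 reporter plasmid.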
Chain of COUP transcription factor 2 (P24468 whole entry): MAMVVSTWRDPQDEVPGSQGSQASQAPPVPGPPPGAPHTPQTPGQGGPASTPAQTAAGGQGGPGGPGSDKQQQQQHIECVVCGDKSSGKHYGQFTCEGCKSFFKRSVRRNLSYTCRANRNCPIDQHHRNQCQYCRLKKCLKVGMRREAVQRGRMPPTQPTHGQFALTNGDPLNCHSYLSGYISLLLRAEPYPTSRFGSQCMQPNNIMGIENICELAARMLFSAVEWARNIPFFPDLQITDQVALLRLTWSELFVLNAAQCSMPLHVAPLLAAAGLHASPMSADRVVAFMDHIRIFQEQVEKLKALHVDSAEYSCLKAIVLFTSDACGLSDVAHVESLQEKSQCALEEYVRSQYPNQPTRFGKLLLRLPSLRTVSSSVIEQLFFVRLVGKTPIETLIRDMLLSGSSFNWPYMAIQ
Test [6] deals with INS1. In words: INS-1E survival protection against cytokine death – cell-based, luminescence, retest, dose response (AID 449756).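 Note: cell death triggered by IL-1 beta plus TNF-alpha plus IFN-gamma mixture; protective hits raise ATP signal compared with cytokine alone wells.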 The settings on record: Rattus norvegicus. The test is classed as functional.
Test [7] in a line: Trypanosoma cruzi growth suppression in host cells – NIH3T3 host cells, beta-gal luminescence, confirmation (AID 2044).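 Note: intracellular parasites grown in NIH/3T3 mouse fibroblasts as host cells; luminescent beta-galactosidase reporter signal from transgenic T. cruzi replicating inside host cells; inhibitors lower the luminescence signal.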 The test is classed as functional, cell-based.
Test [8] is described as follows: NIH3T3 cell viability loss – ATP luminescence, mouse fibroblasts, counter-screen, dose response (AID 2010).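 Note: cells exposed to compound for about 90 hours before reading.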 The test is classed as functional, cell-based. In general terms: Counterscreens check selectivity or assay interference.
Test [9] is described as follows: NIH-3T3 fibroblast cytotoxicity, dose response, cytotoxicity control, cell-based, fluorescence, Alamar Blue, secondary assay (AID 2327).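 Note: NIH-3T3 mouse fibroblasts cultured with fluconazole at 8 µg/mL.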 Type of test: functional. In general terms: Resazurin is reduced to fluorescent resorufin, in cell work by metabolically active cells.
Test [10] can be described thus: HEK-293T cell viability reduction – luminescence, B-cell screen hits, cytotoxicity control for BCR NF-kB inhibitor project, dose response (AID 489021).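 Note: HEK-293T cells carrying an NF-kB luciferase reporter; cells exposed to compound for about 14 hours before viability readout.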 Type of test: functional, cell-based.
Test [11] in a line: fluconazole-exposed Candida albicans growth modulators – fluorescence, retest, confirmation (AID 2467). The test is classed as functional, cell-based.
In test [12] the target is T1, Trace amine-associated receptor 1 (Homo sapiens, UniProt Q96RJ0).
T1 sequence (Q96RJ0 whole entry): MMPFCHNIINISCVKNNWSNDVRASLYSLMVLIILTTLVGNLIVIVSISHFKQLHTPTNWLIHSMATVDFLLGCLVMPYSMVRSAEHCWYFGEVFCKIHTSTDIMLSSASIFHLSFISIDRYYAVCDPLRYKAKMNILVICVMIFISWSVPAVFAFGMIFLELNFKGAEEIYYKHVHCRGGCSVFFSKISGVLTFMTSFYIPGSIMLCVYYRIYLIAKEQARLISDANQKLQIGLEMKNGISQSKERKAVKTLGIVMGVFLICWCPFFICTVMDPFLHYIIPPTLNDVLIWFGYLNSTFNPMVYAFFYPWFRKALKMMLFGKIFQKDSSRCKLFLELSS
In words: Counterscreen for agonists of the human trace amine associated receptor 1 (hTAAR1): Fluorescence-based cell-based high throughput dose response assay to identify hTAAR1 agonist that also desensitize TAAR1 receptor response. The test is classed as functional.

The target of test [13] is T1, Trace amine-associated receptor 1. In words: Fluorescence-based cell-based high throughput dose response assay to identify agonists of the human trace amine associated receptor 1 (TAAR1). The test is classed as functional.
Test [14] can be described thus: cells. The test is classed as functional, cell-based.
Test [15] concerns the target Fructose-bisphosphate aldolase (Mycobacterium tuberculosis, UniProt P9WQA3). The test can be described thus: Fluorescence-based biochemical high throughput dose response assay for inhibitors of the fructose-bisphosphate aldolase (FBA) of M. tuberculosis. Type of test: functional.
Test [16] can be described thus: cells. Type of test: functional, cell-based. The source holds these as a separate data set.
A short description of test [17]: T. cruzi growth inhibition in host cells, dose response, cell-based, plate reader, dry powder, set 2 (AID 652275). Type of test: functional.
A short description of test [18]: Late stage assay provider results from the probe development effort to identify selective inhibitors of heat shock protein 90 (HSP90): Absorbance-based cell proliferation assay in MCF7 cells. Type of test: functional.
The nature of test [19]: Late stage assay provider results from the probe development effort to identify selective inhibitors of heat shock protein 90 (HSP90): Absorbance-based cell proliferation assay in SKBR3 cells. The test is classed as functional. The settings on record: SK-BR-3.
Test [20] addresses T2, Ubiquitin-conjugating enzyme E2 N (Homo sapiens, UniProt P61088).
T2 sequence (P61088 whole entry): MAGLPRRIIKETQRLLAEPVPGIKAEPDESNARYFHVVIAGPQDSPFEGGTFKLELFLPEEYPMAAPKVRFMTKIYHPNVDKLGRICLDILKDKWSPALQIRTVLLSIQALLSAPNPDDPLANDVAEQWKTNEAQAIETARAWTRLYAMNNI
Type of test: functional.

The nature of test [21]: viability of HCT116 lacking mutant beta-catenin – cell-based, human colon tumor, dose response (AID 1045).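 Note: HCT116 colon tumor cells with beta catenin knocked out; cells exposed to compound for 60 hours.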 The test is classed as functional.
A short description of test [22]: viability loss in HEK293T cells – cell-based, cherry-picks, cytotoxicity control for HIV Vif inhibitor project, dose response (AID 652208). Type of test: functional.
Test [23] in a line: viability of PTEN-deleted HCT116 cells – cell-based, HCT116 PTEN knockout, dose response (AID 1047).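 Note: HCT116 colon tumor cells with PTEN knocked out; cells exposed to compound for 60 hours before readout; potency for loss of cell viability measured by luminescence.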 The test is classed as functional.
A short description of test [24]: cells. The test is classed as functional, cell-based. This is another data set of the same source.
The target of test [25] is Nuclear receptor subfamily 0 group B member 1 (Homo sapiens, UniProt P51843). The test is classed as functional, cell-based.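 Note: HEK293T cells transfected with SF-1 and DAX-1 plus StAR promoter luciferase reporter.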
Chain of Nuclear receptor subfamily 0 group B member 1 (P51843 whole entry): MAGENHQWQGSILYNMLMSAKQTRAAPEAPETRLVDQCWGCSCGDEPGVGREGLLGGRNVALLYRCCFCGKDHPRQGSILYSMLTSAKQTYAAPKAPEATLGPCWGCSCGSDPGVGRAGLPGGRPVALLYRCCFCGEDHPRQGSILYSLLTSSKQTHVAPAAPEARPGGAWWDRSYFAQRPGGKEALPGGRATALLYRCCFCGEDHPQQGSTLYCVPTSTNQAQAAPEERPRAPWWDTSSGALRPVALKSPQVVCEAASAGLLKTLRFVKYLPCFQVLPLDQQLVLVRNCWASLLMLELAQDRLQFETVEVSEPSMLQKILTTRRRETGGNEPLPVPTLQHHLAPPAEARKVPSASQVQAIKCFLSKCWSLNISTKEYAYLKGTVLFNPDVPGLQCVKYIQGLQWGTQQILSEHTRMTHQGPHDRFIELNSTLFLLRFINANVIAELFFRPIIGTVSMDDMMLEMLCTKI
For test [26], the target named is Endoplasmic reticulum aminopeptidase 1 (Homo sapiens, UniProt Q9NZ08). The test can be described thus: inhibition of human ERAP1 enzyme activity – biochemical, cherry-pick, set 2, plate reader, dose response (AID 743314).
Chain of Endoplasmic reticulum aminopeptidase 1 (Q9NZ08 whole entry): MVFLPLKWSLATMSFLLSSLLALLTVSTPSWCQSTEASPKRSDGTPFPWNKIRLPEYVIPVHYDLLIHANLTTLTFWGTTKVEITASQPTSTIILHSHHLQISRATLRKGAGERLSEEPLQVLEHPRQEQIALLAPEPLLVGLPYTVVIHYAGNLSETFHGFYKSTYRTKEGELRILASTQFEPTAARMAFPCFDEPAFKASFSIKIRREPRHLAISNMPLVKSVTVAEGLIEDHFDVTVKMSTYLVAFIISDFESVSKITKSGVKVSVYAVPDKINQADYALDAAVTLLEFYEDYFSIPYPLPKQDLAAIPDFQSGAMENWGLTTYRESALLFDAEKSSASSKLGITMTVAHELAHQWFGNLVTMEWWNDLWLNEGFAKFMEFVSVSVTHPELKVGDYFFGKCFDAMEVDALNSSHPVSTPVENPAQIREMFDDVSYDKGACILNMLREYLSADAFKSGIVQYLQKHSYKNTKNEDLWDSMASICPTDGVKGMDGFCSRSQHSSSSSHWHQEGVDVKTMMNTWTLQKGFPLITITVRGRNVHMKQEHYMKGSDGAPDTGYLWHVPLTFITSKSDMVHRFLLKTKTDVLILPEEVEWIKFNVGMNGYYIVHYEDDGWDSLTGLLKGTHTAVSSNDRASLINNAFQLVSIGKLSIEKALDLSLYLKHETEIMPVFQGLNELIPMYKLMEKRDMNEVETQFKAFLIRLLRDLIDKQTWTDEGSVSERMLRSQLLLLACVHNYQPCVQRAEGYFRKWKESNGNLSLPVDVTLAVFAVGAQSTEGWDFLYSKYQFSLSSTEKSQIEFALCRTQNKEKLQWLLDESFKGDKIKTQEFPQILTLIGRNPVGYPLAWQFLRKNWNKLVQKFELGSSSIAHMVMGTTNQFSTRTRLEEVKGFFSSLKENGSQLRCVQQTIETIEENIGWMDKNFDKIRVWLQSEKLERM

Molecules are shown by their SMILES. Calls of active or inactive are those of the source.

Chain of Fructose-bisphosphate aldolase (P9WQA3 whole entry): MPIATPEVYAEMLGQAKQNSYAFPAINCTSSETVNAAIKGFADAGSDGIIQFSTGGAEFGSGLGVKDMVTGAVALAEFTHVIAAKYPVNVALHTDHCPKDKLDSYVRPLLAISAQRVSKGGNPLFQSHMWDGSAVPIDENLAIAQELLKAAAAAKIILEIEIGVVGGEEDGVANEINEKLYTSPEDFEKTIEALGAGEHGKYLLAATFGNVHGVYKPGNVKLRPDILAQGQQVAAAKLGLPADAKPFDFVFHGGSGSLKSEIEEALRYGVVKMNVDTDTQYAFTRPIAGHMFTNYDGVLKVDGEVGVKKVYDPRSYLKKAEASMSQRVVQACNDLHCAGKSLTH

Broadly, the AC50 is the concentration giving half of the maximal activity seen. In the case of `O=C(O)C1CCCCC1C(=O)N1CCc2ccccc2C1CN1C(=O)Cc2ccccc2C1=O` (stereo unspecified), the AC50 in test [1] is > 52 µM (inactive).

`C[C@@H]1CN([C@@H](C)CO)S(=O)(=O)c2ccc(C#Cc3ccccc3F)cc2O[C@@H]1CN(C)C(=O)Cc1ccncc1`: the AC50 in test [2] was 6.5 µM (active); in test [3] it was 5.41 µM (active); in test [4], 45 µM (active).

As usually defined, the IC50 is the concentration that gives 50% inhibition. For orientation: EC50 means the concentration that produces a half-maximal response. `CCOc1ccc(-[n+]2c(-c3ccccc3)cn3c2CCCCC3)cc1`: the IC50 in [5] was 8.69 µM (active); in test [10], > 80 µM (inactive). For the same molecule, in test [6], the AC50 is 0.822 µM (active). Besides, the EC50 is 0.534 µM (active) in test [7], 7 µM (active) in [8], > 150 µM (inactive) in test [9] and 16.3 µM (active) in test [11].

Take `O=C(Nc1cccc2ccccc12)N1CCc2ccccc2C1`: the IC50 in [12] was 9.86 µM (active); in [14], > 29.9 µM (inactive); in [15] it was > 9.99 µM (inactive). The EC50 in test [13] was 0.266 µM (active); in test [16] it was > 29.9 µM (inactive).

Consider `O=C(Cn1ccnc1[N+](=O)[O-])NCc1ccccc1` [BENZNIDAZOLE], for which the half-maximal activity concentration (AC50) in [17] was 0.153 µM (active).

`CCCCOc1cccc(NC(=O)c2coc(=O)c(Br)c2)c1`: the IC50 in test [18] is 22.8 µM (inactive); in test [19] it was 32.9 µM (inactive).

Take `COc1cc2c3nnc(-c4ccc(F)cc4)c-3cn(Cc3ccc(F)cc3)c2cc1OC`: the IC50 in test [20] is > 20 µM (inactive). Also, the EC50 in [21] is 7.33 µM (active); in test [23], 6.2 µM (active). Further, the AC50 in test [22] was 26.3 µM (active).

Consider `COc1ccccc1OCc1cc(C(=O)N(C)CCC2CCCCO2)no1` (stereo unspecified), for which the IC50 in test [24] and in [25] was > 67.5 µM (inactive) each time.

With `C[C@H](CO)N1C[C@H](C)[C@H](CN(C)C(=O)Nc2ccccc2)Oc2ncccc2C1=O`, the AC50 in [26] was 12.3 µM (active).
